Molecules are shown by their SMILES. Where “and” joins values, the source holds several entries; their conditions need not be identical. Equal values may be shown once.

The test is described as follows: Cell-based activity under Prompt Conditions: Cell-based activity under Prompt Conditions. Rat or human NHE3-mediated Na+-dependent H+ antiport was measured using a modification of the pH sensitive dye method originally reported by Paradiso (PNAS USA. 81:7436-7440, 1984). Opossum kidney (OK) cells were obtained from the ATCC and propagated per their instructions. The rat NHE3 gene (GenBank M85300) or the human NHE3 gene (GenBank NM_004174.1) was introduced into OK cells via electroporation, and cells were seeded into 96 well plates and grown overnight. Medium was aspirated from the wells, cells were washed twice with NaCl-HEPES buffer (100 mM NaCl, 50 mM HEPES, 10 mM glucose, 5 mM KCl, 2 mM CaCl2, 1 mM MgCl2, pH 7.4), then incubated for 30 min at room temperature with NH4Cl-HEPES buffer (20 mM NH4Cl, 80 mM NaCl, 50 mM HEPES, 5 mM KCl, 2 mM CaCl2, 1 mM MgCl2, pH 7.4) containing 5 μM bis(acetoxymethyl) 3,3′-(3′,6′-bis(acetoxymethoxy)-5-((acetoxymethoxy)carbonyl)-3-oxo-3H-spiro[isobenzofuran-1,9′-xanthene]-2′,7′-diyl)dipropanoate (BCECF-AM).Cells were washed twice with Ammonium free, Na+-free HEPES (100 mM choline, 50 mM HEPES, 10 mM glucose, 5 mM KCl, 2 mM CaCl2, 1 mM MgCl2, pH 7.4) and incubated in the same buffer for 10 minutes at room temperature to lower intracellular pH. […] Initial rates were plotted as the average 2 or more replicates, and pIC50 values were estimated using GraphPad Prism.
As to `CN1Cc2c(Cl)cc(Cl)cc2[C@H](c2cccc(S(=O)(=O)NCCOCCOCCNC(=O)CCN(CCC(=O)NCCOCCOCCNS(=O)(=O)c3cccc([C@@H]4CN(C)Cc5c(Cl)cc(Cl)cc54)c3)CCC(=O)NCCOCCOCCNS(=O)(=O)c3cccc([C@@H]4CN(C)Cc5c(Cl)cc(Cl)cc54)c3)c2)C1`, the IC50 is 3160 nM.

Take `CN1Cc2c(Cl)cc(Cl)cc2[C@H](c2cccc(S(=O)(=O)NCCOCCOCCNC(=O)NCCC(CCNC(=O)NCCOCCOCCNS(=O)(=O)c3cccc([C@@H]4CN(C)Cc5c(Cl)cc(Cl)cc54)c3)(CCNC(=O)NCCOCCOCCNS(=O)(=O)c3cccc([C@@H]4CN(C)Cc5c(Cl)cc(Cl)cc54)c3)NC(=O)COCC(=O)O)c2)C1`: the IC50 was 6.31 nM.

In the case of `CN(C)[C@H]1Cc2ccc(Cl)cc2[C@@H]1Oc1ccc(S(=O)(=O)NCCOCCOCCNC(=O)NCCCCNC(=O)NCCOCCOCCNS(=O)(=O)c2ccc(O[C@H]3c4cc(Cl)ccc4C[C@@H]3N(C)C)cc2)cc1`, the IC50 is less than 10000 nM.

As to `N[C@@H]1CCCN([C@H]2Cc3c(Cl)cc(Cl)cc3[C@@H]2Oc2ccc(S(=O)(=O)NCCOCCOCCNC(=O)NCCCCNC(=O)NCCOCCOCCNS(=O)(=O)c3ccc(O[C@H]4c5cc(Cl)cc(Cl)c5C[C@@H]4N4CCC[C@@H](N)C4)cc3)cc2)C1`, the IC50 is 39.8 nM.

Consider `CN1Cc2c(Cl)cc(Cl)cc2[C@H](c2cccc(S(=O)(=O)N(CCO)CCOCCOCCNC(=O)NCCCN(CCCNC(=O)NCCOCCOCCN(CCO)S(=O)(=O)c3cccc([C@@H]4CN(C)Cc5c(Cl)cc(Cl)cc54)c3)CCCNC(=O)NCCOCCOCCN(CCO)S(=O)(=O)c3cccc([C@@H]4CN(C)Cc5c(Cl)cc(Cl)cc54)c3)c2)C1`, for which the IC50 is 15.8 nM.

Take `C/C(=C\c1cc(F)c(Oc2ccc(S(=O)(=O)NCCOCCOCCOCCNC(=O)CN(CCN(CC(=O)O)CC(=O)NCCOCCOCCOCCNS(=O)(=O)c3ccc(Oc4c(F)cc(/C=C(\C)C(=O)N=C(N)N)cc4F)cc3)CC(=O)O)cc2)c(F)c1)C(=O)N=C(N)N`: the IC50 is 31.6 nM.

In the case of `O=C(NCCOCCOCCNS(=O)(=O)c1ccc(O[C@H]2c3ccccc3C[C@@H]2N2CCCCC2)cc1)c1ccc(C(=O)NCCOCCOCCNS(=O)(=O)c2ccc(O[C@H]3c4ccccc4C[C@@H]3N3CCCCC3)cc2)cc1`, the IC50 is 7.94 nM.

Take `CC(=O)C(CCC(=O)NCCOCCOCCNS(=O)(=O)c1cccc([C@@H]2CN(C)Cc3c(Cl)cc(Cl)cc32)c1)(CCC(=O)NCCOCCOCCNS(=O)(=O)c1cccc([C@@H]2CN(C)Cc3c(Cl)cc(Cl)cc32)c1)CCC(=O)NCCOCCOCCNS(=O)(=O)c1cccc([C@@H]2CN(C)Cc3c(Cl)cc(Cl)cc32)c1`: the IC50 was 316 nM.

On to `CCOCCOCCOCCOCCOCCC(=O)N(CCNC(=O)NCCOCCOCCNS(=O)(=O)c1cccc([C@@H]2CN(C)Cc3c(Cl)cc(Cl)cc32)c1)CCNC(=O)NCCOCCOCCNS(=O)(=O)c1cccc([C@@H]2CN(C)Cc3c(Cl)cc(Cl)cc32)c1`, for which the IC50 was 251 nM.

Take `CN1Cc2c(Cl)cc(Cl)cc2[C@H](c2cccc(S(=O)(=O)NCCOCCOCCNC(=O)CN(CCN(CC(=O)O)CC(=O)NCCOCCOCCNS(=O)(=O)c3cccc([C@@H]4CN(C)Cc5c(Cl)cc(Cl)cc54)c3)CC(=O)O)c2)C1`: the IC50 is 12.6 nM.

Regarding `CN1Cc2c(Cl)cc(Cl)cc2[C@H](c2cccc(S(=O)(=O)NCCOCCOCCNC(=O)CCC(CCC(=O)NCCOCCOCCNS(=O)(=O)c3cccc([C@@H]4CN(C)Cc5c(Cl)cc(Cl)cc54)c3)(CCC(=O)NCCOCCOCCNS(=O)(=O)c3cccc([C@@H]4CN(C)Cc5c(Cl)cc(Cl)cc54)c3)NC(=O)NCCN3CCOCC3)c2)C1`, the IC50 is 63.1 nM.

As for `CN1Cc2c(Cl)cc(Cl)cc2[C@H](c2cccc(S(=O)(=O)NCCOCCOCCNC(=O)CN(CCOCCOCCN(CC(=O)NCCOCCOCCNS(=O)(=O)c3cccc([C@@H]4CN(C)Cc5c(Cl)cc(Cl)cc54)c3)CC(=O)NCCOCCOCCNS(=O)(=O)c3cccc([C@@H]4CN(C)Cc5c(Cl)cc(Cl)cc54)c3)CC(=O)NCCOCCOCCNS(=O)(=O)c3cccc([C@@H]4CN(C)Cc5c(Cl)cc(Cl)cc54)c3)c2)C1`, the IC50 was 1580 nM.

`CN1Cc2c(Cl)cc(Cl)cc2[C@H](c2cccc(S(=O)(=O)NCCOCCOCCNC(=O)CN(CCOCCOCCOCCN)CC(=O)NCCOCCOCCNS(=O)(=O)c3cccc([C@@H]4CN(C)Cc5c(Cl)cc(Cl)cc54)c3)c2)C1`: the IC50 was 15.8 nM.

Take `CN1Cc2c(Cl)cc(Cl)cc2C(c2cccc(S(=O)(=O)NCCOCCOCCNC(=O)CCC(CCC(=O)NCCOCCOCCNS(=O)(=O)c3cccc([C@@H]4CN(C)Cc5c(Cl)cc(Cl)cc54)c3)(CCC(=O)NCCOCCOCCNS(=O)(=O)c3cccc([C@@H]4CN(C)Cc5c(Cl)cc(Cl)cc54)c3)N(C)C)c2)C1` (some centres not stated): the IC50 is 67.6 nM.

Regarding `CN(C)[C@H]1Cc2c(Cl)cc(Cl)cc2[C@@H]1Oc1ccc(S(=O)(=O)NCCOCCOCCNC(=O)C(C)(C)C(=O)NCCOCCOCCNS(=O)(=O)c2ccc(O[C@H]3c4cc(Cl)cc(Cl)c4C[C@@H]3N(C)C)cc2)cc1`, the IC50 was 5.01 nM.

For the molecule `CN1Cc2c(Cl)cc(Cl)cc2[C@H](c2cccc(S(=O)(=O)NCCOCCOCCNC(=O)CCC(CCC(=O)NCCOCCOCCNS(=O)(=O)c3cccc([C@@H]4CN(C)Cc5c(Cl)cc(Cl)cc54)c3)(CCC(=O)NCCOCCOCCNS(=O)(=O)c3cccc([C@@H]4CN(C)Cc5c(Cl)cc(Cl)cc54)c3)NC(=O)N[C@@H](CO)C(=O)O)c2)C1`, the IC50 is 12.6 nM.

For the molecule `COCCNC(=O)CN(C)CC(=O)NCCOCCOCCNC(=O)NCCOCCOCCOCCN1CCN(c2ccc(-c3nc(N=C(N)N)nc4ccc(Cl)cc34)cc2)CC1`, the IC50 was 31.6 nM.

Turning to `CN1Cc2c(Cl)cc(Cl)cc2[C@H](c2cccc(S(=O)(=O)NCCOCCOCCNC(=O)CCC(CCC(=O)NCCOCCOCCNS(=O)(=O)c3cccc([C@@H]4CN(C)Cc5c(Cl)cc(Cl)cc54)c3)(CCC(=O)NCCOCCOCCNS(=O)(=O)c3cccc([C@@H]4CN(C)Cc5c(Cl)cc(Cl)cc54)c3)NC(=O)Cn3ccnc3)c2)C1`, the 50% inhibitory concentration (IC50) is 158 nM.

Regarding `CN1Cc2c(Cl)cc(Cl)cc2[C@H](c2cccc(S(=O)(=O)NCCOCCOCCNC(=O)CN(CC(=O)NCCOCCOCCNS(=O)(=O)c3cccc([C@@H]4CN(C)Cc5c(Cl)cc(Cl)cc54)c3)CC(=O)NCCOCCOCCNS(=O)(=O)c3cccc([C@@H]4CN(C)Cc5c(Cl)cc(Cl)cc54)c3)c2)C1`, the IC50 was 501 nM.

Turning to `CN1Cc2c(Cl)cc(Cl)cc2[C@H](c2cccc(S(=O)(=O)NCCOCCOCCOCCNCc3ccc(-c4ccc(Cl)cc4)cc3)c2)C1`, the IC50 was less than 10000 nM.

As for `NCCOCCOCCOc1ccc(-c2nc(N=C(N)N)nc3ccc(Cl)cc23)cc1`, the IC50 was 112 nM.

Turning to `CN1Cc2c(Cl)cc(Cl)cc2[C@H](c2cccc(S(=O)(=O)NCCOCCOCCNC(=O)NCCN(CCNC(=O)NCCOCCOCCNS(=O)(=O)c3cccc([C@@H]4CN(C)Cc5c(Cl)cc(Cl)cc54)c3)C(=O)CCCCCCCCCCC(=O)N(CCNC(=O)NCCOCCOCCNS(=O)(=O)c3cccc([C@@H]4CN(C)Cc5c(Cl)cc(Cl)cc54)c3)CCNC(=O)NCCOCCOCCNS(=O)(=O)c3cccc([C@@H]4CN(C)Cc5c(Cl)cc(Cl)cc54)c3)c2)C1`, the IC50 is less than 10000 nM.

Regarding `CN1Cc2c(Cl)cc(Cl)cc2[C@H](c2cccc(S(=O)(=O)NCCOCCOCCNC(=O)NCCCC(CCCNC(=O)NCCOCCOCCNS(=O)(=O)c3cccc([C@@H]4CN(C)Cc5c(Cl)cc(Cl)cc54)c3)(CCCNC(=O)NCCOCCOCCNS(=O)(=O)c3cccc([C@@H]4CN(C)Cc5c(Cl)cc(Cl)cc54)c3)NC(=O)COCC(=O)O)c2)C1`, the IC50 is 0.631 nM.

On to `CN1Cc2c(Cl)cc(Cl)cc2[C@H](c2cccc(S(=O)(=O)NCCOCCOCCNC(=O)N(C)CCCN(CCCN(C)C(=O)NCCOCCOCCNS(=O)(=O)c3cccc([C@@H]4CN(C)Cc5c(Cl)cc(Cl)cc54)c3)CCCN(C)C(=O)NCCOCCOCCNS(=O)(=O)c3cccc([C@@H]4CN(C)Cc5c(Cl)cc(Cl)cc54)c3)c2)C1`, for which the IC50 is 126 nM.

For `O=C(NCCOCCOCCNS(=O)(=O)c1ccc(O[C@H]2c3ccccc3C[C@@H]2N2CCCCC2)cc1)c1cccc(C(=O)NCCOCCOCCNS(=O)(=O)c2ccc(O[C@H]3c4ccccc4C[C@@H]3N3CCCCC3)cc2)c1`, the IC50 is less than 10000 nM.

For `CCCCCCCCOc1ccc(CNCCOCCOCCOCCNS(=O)(=O)c2cccc([C@@H]3CN(C)Cc4c(Cl)cc(Cl)cc43)c2)cc1`, the IC50 is less than 10000 nM.

In the case of `CN1CCN(C(=O)NC(CCC(=O)NCCOCCOCCNS(=O)(=O)c2cccc([C@@H]3CN(C)Cc4c(Cl)cc(Cl)cc43)c2)(CCC(=O)NCCOCCOCCNS(=O)(=O)c2cccc([C@@H]3CN(C)Cc4c(Cl)cc(Cl)cc43)c2)CCC(=O)NCCOCCOCCNS(=O)(=O)c2cccc([C@@H]3CN(C)Cc4c(Cl)cc(Cl)cc43)c2)CC1`, the IC50 is 126 nM.

For the molecule `CCOCCOCCOCCOCCC(=O)NCCOCCOCCOCCNS(=O)(=O)c1ccc(O[C@H]2c3ccccc3C[C@@H]2N2CCCCC2)cc1`, the IC50 is 35.5 nM.

As to `NCCOCCOCCOCCN1CCN(c2ccc(-c3nc(N=C(N)N)nc4ccc(Cl)cc34)cc2)CC1`, the IC50 was 56.2 nM and 126 nM.

For the molecule `CC(C)CCC[C@@H](C)[C@H]1CC[C@H]2[C@@H]3CC=C4C[C@@H](OC(=O)NCCOCCOCCNC(=O)N(CCNC(=O)NCCOCCOCCNS(=O)(=O)c5cccc([C@@H]6CN(C)Cc7c(Cl)cc(Cl)cc76)c5)CCNC(=O)NCCOCCOCCNS(=O)(=O)c5cccc([C@@H]6CN(C)Cc7c(Cl)cc(Cl)cc76)c5)CC[C@]4(C)[C@H]3CC[C@]12C`, the IC50 is less than 10000 nM.

For `CN1Cc2c(Cl)cc(Cl)cc2[C@H](c2cccc(S(=O)(=O)NCCOCCOCCNC(=O)CCC(CCCNC(=O)NCCOCCOCCNS(=O)(=O)c3cccc([C@@H]4CN(C)Cc5c(Cl)cc(Cl)cc54)c3)(CCC(=O)NCCOCCOCCNS(=O)(=O)c3cccc([C@@H]4CN(C)Cc5c(Cl)cc(Cl)cc54)c3)NC(=O)NCP(=O)(O)O)c2)C1`, the IC50 was 50.1 nM.

As for `CN1Cc2c(Cl)cc(Cl)cc2[C@H](c2cccc(S(=O)(=O)NCCOCCOCCNC(=O)NCCCC(N)(CCCNC(=O)NCCOCCOCCNS(=O)(=O)c3cccc([C@@H]4CN(C)Cc5c(Cl)cc(Cl)cc54)c3)CCCNC(=O)NCCOCCOCCNS(=O)(=O)c3cccc([C@@H]4CN(C)Cc5c(Cl)cc(Cl)cc54)c3)c2)C1`, the IC50 was 100 nM.

What is called IC50 is the concentration that inhibits the measured activity by half.

The values above are taken from ChEMBL document CHEMBL5726876, “NHE3-binding compounds and methods for inhibiting phosphate transport” (2019).
